Data as given in patent US20250179059A1 (The Regents of the University of California, priority 2021, published 2025).
Where two headings read alike, the source gives them in different places.

Experiments:
[1] = tested on: human SKM-1 acute myeloid leukemia cells; assay: SKM-1 antiproliferation cell-based assay (ATPlite); details: Homo sapiens
How it was run: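 Log-phase cells in RPMI 1640/15% FBS were seeded at 34722 cells/mL and exposed for 4 days to nine-concentration DMSO serial dilutions in triplicate. Viability was read as ATP luminescence (ATPlite 1step), and IC50 values came from variable-slope non-linear regression.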

[2] = target: T1, human BRD4 bromodomain II (Homo sapiens, UniProt O60885); assay: Bromodomain binding assay (AlphaScreen), BRD4 BDII
T1 construct: human BRD4 bromodomain II [based on Genbank NM_058243, residues 349-460]; host or cells: E. coli
How it was run: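 Inhibition of acetyl-H4 peptide binding to human BRD4 bromodomains is measured by bead-based proximity (AlphaScreen) in pH 7.5 HEPES buffer containing 0.05% CHAPS and 0.1% BSA. Ten compound concentrations in 3-fold steps give competitive binding IC50s.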

[3] = SKM-1, 96 h, SKM-1 antiproliferation assay, 4 days, Table C2
[4] = AlphaScreen assay, Table C2, read-out: BRD4 BDII IC50
[5] = SKM-1, SKM-1 antiproliferation assay
[6] = BRD4 BDII AlphaScreen assay, read-out: BRD4 BD2 IC50

SMILES	GI50 [1, 3] [nM]	IC50 [2, 4] [nM]	GI50 [1, 5] [nM]	IC50 [2, 6] [nM]
Cn1ccn(-c2ccc(-c3cc(F)cc(-c4ccc(Cl)c(N5CCN(C(C)(C)C)CC5)c4)c3O)cc2Cl)c1=O [Example 809, 1-(3″-(4-(tert-butyl)piperazin-1-yl)-3,4″-dichloro-5′-fluoro-2′-hydroxy-[1,1′:3′,1″-terphenyl]-4-yl)-3-methyl-1H-imidazol-2(3H)-one]	0.3 to 30	1 to 10	–	–
CN1CCN(c2c(F)cc(-c3cc(F)cc(-c4ccnc(N5CCNCC5)c4)c3O)cc2Cl)C1=O [Example 400, 1-(3-chloro-5,5′-difluoro-2′-hydroxy-3′-(2-(piperazin-1-yl)pyridin-4-yl)-[1,1′-biphenyl]-4-yl)-3-methylimidazolidin-2-one]	300 to 3000	10 to 100	–	–
Cn1ccn(-c2ccc(-c3cc(F)cc(-c4cc(N5C[C@@H](N)C6(CC6)C5)c5cn[nH]c5c4)c3O)cc2Cl)c1=O [Example 598, (S)-1-(3′-(4-(7-amino-5-azaspiro[2.4]heptan-5-yl)-1H-indazol-6-yl)-3-chloro-5′-fluoro-2′-hydroxy-[1,1′-biphenyl]-4-yl)-3-methyl-1H-imidazol-2(3H)-one]	0.3 to 30	1 to 10	–	–
Cn1ccn(-c2ccc(-c3cc(F)cc(-c4ccnc(N5CCC(C)(O)CC5)c4)c3O)cc2Cl)c1=O [Example 762, 1-(3-chloro-5′-fluoro-2′-hydroxy-3′-(2-(4-hydroxy-4-methylpiperidin-1-yl)pyridin-4-yl)-[1,1′-biphenyl]-4-yl)-3-methyl-1,3-dihydro-2H-imidazol-2-one]	30 to 300	1 to 10	–	–
Cn1ccn(-c2c(OC3CC3)ccc(-c3cc(F)cc(-c4cccc(N5CCN(C(C)(C)C)CC5)c4)c3O)c2Cl)c1=O [Example 931, 1-(3″-(4-(tert-butyl)piperazin-1-yl)-2-chloro-4-cyclopropoxy-5′-fluoro-2′-hydroxy-[1,1′:3′,1″-terphenyl]-3-yl)-3-methyl-1,3-dihydro-2H-imidazol-2-one]	–	–	300 to 3000	> 100
COc1ncc(-c2cc(F)cc(-c3ccc(-n4ccn(C)c4=O)c(C)c3)c2O)cc1N1CCN(C(C)(C)C)CC1 [Example 948, 1-(3′-(5-(4-(tert-butyl)piperazin-1-yl)-6-methoxypyridin-3-yl)-5′-fluoro-2′-hydroxy-3-methyl-[1,1′-biphenyl]-4-yl)-3-methyl-1,3-dihydro-2H-imidazol-2-one]	–	–	0.3 to 30	1 to 10
CC1CN(c2cc(-c3cccc(-c4ccc(N5CCCC5=O)c(Cl)c4)c3O)ccn2)CC(C)N1 (stereo not shown) [Example 267, 1-(3-chloro-3′-(2-(3,5-dimethylpiperazin-1-yl)pyridin-4-yl)-2′-hydroxy-[1,1′-biphenyl]-4-yl)pyrrolidin-2-one]	30 to 300	1 to 10	–	–
CC(=O)Nc1ccc(-c2cccc(-c3cncc(N4CCN[C@H](C)C4)c3)c2O)cc1Cl [Example 259, (R)-N-(3-chloro-2′-hydroxy-3′-(5-(3-methylpiperazin-1-yl)pyridin-3-yl)-[1,1′-biphenyl]-4-yl)acetamide]	30 to 300	1 to 10	–	–
Cc1cc(-c2ccc(-n3ccn(C)c3=O)c(C)c2)c(O)c(-c2cnc(C)c(N3CCN(C(C)(C)C)CC3)c2)n1 [Example 1019, 1-(4-(5′-(4-(tert-Butyl)piperazin-1-yl)-3-hydroxy-6,6′-dimethyl-[2,3′-bipyridin]-4-yl)-2-methylphenyl)-3-methyl-1,3-dihydro-2H-imidazol-2-one]	–	–	0.3 to 30	1 to 10
C[C@@H]1CN(c2cccc(-c3cc(F)cc(-c4ccc(-n5ccn(C)c5=O)c(Cl)c4)c3O)c2)CCN1 [Example 671, (R)-1-(3-chloro-5′-fluoro-2′-hydroxy-3″-(3-methylpiperazin-1-yl)-[1,1′:3′,1″-terphenyl]-4-yl)-3-methyl-1H-imidazol-2(3H)-one]	0.3 to 30	0.01 to 1	–	–
Cc1cc(-c2cc(F)cc(-c3ccnc(N4CCNCC4)c3)c2O)cc(Cl)c1N1CCN(C)C1=O [Example 385, 1-(3-chloro-5′-fluoro-2′-hydroxy-5-methyl-3′-(2-(piperazin-1-yl)pyridin-4-yl)-[1,1′-biphenyl]-4-yl)-3-methylimidazolidin-2-one]	300 to 3000	> 100	–	–
Cc1ncc(-c2cc(F)cc(-c3ccc(-n4ccn(C)c4=O)c(Cl)c3)c2O)cc1N1CC(F)(F)[C@@](C)(O)C1 [Example 897]	–	–	30 to 300	1 to 10
Cn1ccn(-c2ccc(-c3cc(F)cc(-c4cccc(N5CCN(C6CCC6)CC5)c4)c3O)cc2Cl)c1=O [Example 868]	–	–	0.3 to 30	1 to 10
Cn1ccn(-c2ccc(-c3cc(F)cc(-c4cncc(N5CCNC(C)(C)C5)c4)c3O)cc2Cl)c1=O [Example 561, 1-(3-chloro-3′-(5-(3,3-dimethylpiperazin-1-yl)pyridin-3-yl)-5′-fluoro-2′-hydroxy-[1,1′-biphenyl]-4-yl)-3-methyl-1H-imidazol-2(3H)-one]	0.3 to 30	0.01 to 1	–	–
CN1CCN(c2ccc(-c3cc(F)cc(-c4cnc(Cl)c(N5CCNCC5)c4)c3O)cc2Cl)C1=O [Example 407, 1-(3-chloro-3′-(6-chloro-5-(piperazin-1-yl)pyridin-3-yl)-5′-fluoro-2′-hydroxy-[1,1′-biphenyl]-4-yl)-3-methylimidazolidin-2-one]	0.3 to 30	1 to 10	–	–
Cn1ccn(-c2ccc(-c3cc(F)cc(-c4ccnc(N5CC(O)C6(CC6)C5)c4)c3O)cc2Cl)c1=O (stereo not shown) [Example 743, 1-(3-chloro-5′-fluoro-2′-hydroxy-3′-(2-(7-hydroxy-5-azaspiro[2.4]heptan-5-yl)pyridin-4-yl)-[1,1′-biphenyl]-4-yl)-3-methyl-1H-imidazol-2(3H)-one]	0.3 to 30	0.01 to 1	–	–
Cc1cc(-c2ccc(-n3ccn(C)c3=O)c(Cl)c2)c(O)c(-c2ccnc(N3CC(F)(F)[C@@](C)(O)C3)c2)n1 [Example 1036, (S)-1-(2-chloro-4-(2′-(3,3-difluoro-4-hydroxy-4-methylpyrrolidin-1-yl)-3-hydroxy-6-methyl-[2,4′-bipyridin]-4-yl)phenyl)-3-methyl-1,3-dihydro-2H-imidazol-2-one]	–	–	30 to 300	1 to 10
COC(=O)c1cc(-c2cccc(-c3ccc(NC(C)=O)c(F)c3)c2O)cc(N2CCNCC2)n1 [Example 260, Methyl 4-(4′-acetamido-3′-fluoro-2-hydroxy-[1,1′-biphenyl]-3-yl)-6-(piperazin-1-yl)picolinate]	≥ 3000	> 100	–	–
CC(=O)Nc1cc(-c2cc(F)cc(-c3ccc(N4CCN(C)C4=O)c(Cl)c3)c2O)cc(N2CCNCC2)n1 [Example 433, N-(4-(3′-chloro-5-fluoro-2-hydroxy-4′-(3-methyl-2-oxoimidazolidin-1-yl)-[1,1′-biphenyl]-3-yl)-6-(piperazin-1-yl)pyridin-2-yl)acetamide]	0.3 to 30	1 to 10	–	–
Cn1ccn(-c2ccc(-c3cc(F)cc(-c4cc(N5CC6CCC5CN6)c5cn[nH]c5c4)c3O)cc2Cl)c1=O (stereo not shown) [Example 600, 1-(3′-(4-(2,5-diazabicyclo[2.2.2]octan-2-yl)-1H-indazol-6-yl)-3-chloro-5′-fluoro-2′-hydroxy-[1,1′-biphenyl]-4-yl)-3-methyl-1H-imidazol-2(3H)-one]	0.3 to 30	1 to 10	–	–
